Source: US6342247B1, “Pharmaceutical compositions containing irbesartan” (Sanofi-Synthelabo, priority 1995, dated 2002)

Test: Stability of tablets / hydrochlorothiazide degradation depending on excipients
Assay type: physicochemical
From the text: Under certain conditions, hydrochlorothiazide can hydrolyze to form, as by-product products, a free amine degradant and formaldehyde (D.S. Desai et al., International Journal of Phaxmaceutics, 107(2), 141-47 (1994)). The selection of excipients can impact the stability of hydrochlorothiazide. […] The aforementioned preferred compositions of the present invention containing irbesartan and hydrochlorothiazide are thus further advantageous since the excipients employed therein minimize or eliminate hydrochlorothiazide degradation.

NS(=O)(=O)c1cc2c(cc1Cl)NCNS2(=O)=O [hydrochlorothiazide]
degradation of hydrochlorothiazide (poloxamer in the composition): increase the degradation
stability of hydrochlorothiazide (povidone as binder): formation of quantities of the free amine degradant
stability of hydrochlorothiazide (pregelatinized starch as binder, compared with povidone): greater stability
